Results on twelve compounds are retold here after ChEMBL document CHEMBL1201862, “PubChem BioAssay data set” (2004).

Test systems include RPMI-8226; SNB-75; SN12C; OVCAR-3; HCT-15; SW-620; SF-268; KM12; M14; HOP-92; K562; SK-OV-3; NCI-H460; SK-MEL-5; U-251; HCT-116; IGROV-1; CAKI-1.
Common to all, as to assay: NCI anticancer screen, dose series, 48 h

Structures are written as SMILES.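 Five compound concentrations were applied to cells in 96-well plates for 48 hours; endpoints were derived by simple linear interpolation of the resulting dose-response curve. Here, GI50 denotes the concentration required for 50% inhibition of growth.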 Activity calls are given as the source filed them. Rule as the data show it: active = GI50 up to about 1.1 µM and inactive = higher.

As to `COc1ccc(Br)c(CN2CCc3ccccc32)c1OS(=O)(=O)c1ccc(C)cc1`, the GI50 in the experiment with RPMI-8226 is 26.3 µM (inactive); in the experiment with SNB-75, 19.2 µM (inactive); in the experiment on SN12C it was 76 µM (inactive); in the experiment on OVCAR-3, 5.07 µM (inactive); in the experiment with HCT-15 it was 25.1 µM; with SW-620 it was 16.3 µM (inactive). Also, the GI50 was 23.7 µM (inactive) in the experiment on SF-268; 7.66 µM (inactive) with KM12; 13.9 µM (inactive) in the experiment on M14; 18 µM (inactive) with HOP-92; 4.75 µM (inactive) in the experiment on K562.

In the case of `COc1cc(/C=C/C(=O)O)ccc1C(=O)OCc1ccccc1`, the GI50 in the experiment with SK-OV-3, in the experiment on RPMI-8226, in the experiment with NCI-H460, in the experiment with SNB-75, in the experiment on SN12C and in the experiment with SK-MEL-5 was > 100 µM (inactive) throughout. Moreover, the GI50 is > 100 µM (inactive) with OVCAR-3; over 100 µM in the experiment with HCT-15; > 100 µM (inactive) in the experiment on SW-620; > 100 µM (inactive) with SF-268; > 100 µM (inactive) in the experiment with U-251; > 100 µM (inactive) with KM12. The GI50 with HCT-116, in the experiment with HOP-92, in the experiment on K562 and in the experiment on IGROV-1 was > 100 µM (inactive) each time.

In the case of `Cn1c2ccccc2c2ccc3c(c21)C(=O)C(c1ccccc1)=CC3=O`, the GI50 in the experiment on CAKI-1 is 49.9 µM (inactive); with SK-OV-3 it was 81.3 µM (inactive); with RPMI-8226 it was 23.6 µM (inactive); in the experiment with NCI-H460, 9.27 µM (inactive); with SNB-75 it was 9.31 µM (inactive); in the experiment with SN12C, 17.3 µM (inactive). Further, the GI50 with SK-MEL-5 was 22.8 µM (inactive); with OVCAR-3, 23.7 µM (inactive); with HCT-15, 7.03 µM; with SF-268, 36 µM (inactive); in the experiment on U-251, 36.8 µM (inactive); with KM12 it was 32.2 µM (inactive). Moreover, the GI50 is 39.4 µM (inactive) with M14; 14.5 µM (inactive) in the experiment on HCT-116; 15.7 µM (inactive) with HOP-92; 4.75 µM (inactive) with K562; 13.4 µM (inactive) in the experiment with IGROV-1.

With `Nc1cc(O)c2cc(/N=N/c3ccc(/N=N/c4ccc(/N=N/c5ccc6cc(S(=O)(=O)O)cc(S(=O)(=O)O)c6c5)c5ccccc45)c4cc(S(=O)(=O)O)ccc34)c(S(=O)(=O)O)cc2c1`, the GI50 is > 100 µM (inactive) in the experiment on SK-OV-3; > 100 µM (inactive) in the experiment on RPMI-8226; > 100 µM (inactive) with NCI-H460; 49.1 µM (inactive) in the experiment with SNB-75; > 100 µM (inactive) with SN12C; > 100 µM (inactive) in the experiment on SK-MEL-5. In addition, the GI50 is 67.6 µM (inactive) in the experiment on OVCAR-3; 42.4 µM with HCT-15; > 100 µM (inactive) with SW-620; > 100 µM (inactive) in the experiment with SF-268; > 100 µM (inactive) in the experiment on U-251; > 100 µM (inactive) in the experiment on KM12. For the same compound, the GI50 with HCT-116 was > 100 µM (inactive); in the experiment on HOP-92, 32.2 µM (inactive); in the experiment on K562, > 31.6 µM (inactive); in the experiment with IGROV-1, > 100 µM (inactive).

Regarding `COc1cc(C2c3cc4c(cc3[C@@H](Oc3ccc(F)cc3)C3COC(=O)[C@H]23)OCO4)cc(OC)c1O` (some centres undefined), the GI50 is 0.456 µM (active) in the experiment on CAKI-1; 0.461 µM (active) in the experiment on RPMI-8226; 0.343 µM (active) in the experiment with NCI-H460; 0.287 µM (active) in the experiment with SNB-75; 3.19 µM (inactive) in the experiment with SN12C; 0.527 µM (active) in the experiment with SK-MEL-5. The GI50 in the experiment with OVCAR-3 is 1.75 µM (inactive); with HCT-15, 0.364 µM; in the experiment with SW-620 it was 0.481 µM (active); in the experiment on SF-268, 0.679 µM (active); with U-251, 0.365 µM (active); with KM12 it was 4.03 µM (inactive). Further, the GI50 in the experiment with HCT-116 is 0.347 µM (active); with HOP-92 it was 1.2 µM (inactive); with K562, 0.457 µM (active); in the experiment with IGROV-1, 1.32 µM (inactive).

In the case of `CC(=O)Oc1ccc(Nn2c3ccccc3c3ccccc32)c(C)c1`, the GI50 was 40.9 µM (inactive) in the experiment with SK-OV-3; 15.7 µM (inactive) with RPMI-8226; 27.7 µM (inactive) with NCI-H460; 41.5 µM (inactive) in the experiment with SN12C; 39.2 µM (inactive) in the experiment on SK-MEL-5; 42.6 µM (inactive) in the experiment with OVCAR-3. In addition, the GI50 with HCT-15 is 24.6 µM; in the experiment with SW-620, 25.2 µM (inactive); in the experiment with SF-268, 45.9 µM (inactive); in the experiment on U-251, 46 µM (inactive); with KM12, 36.6 µM (inactive); with M14 it was 29 µM (inactive). The GI50 is 35.7 µM (inactive) in the experiment on HCT-116, 24.5 µM (inactive) in the experiment with HOP-92, 32.1 µM (inactive) in the experiment with K562 and 23.6 µM (inactive) in the experiment on IGROV-1.

Take `CN1c2ccccc2N(C(=O)c2ccc([N+](=O)[O-])cc2)C(CC(=O)O)c2cccn21` (centres undefined): the GI50 in the experiment on CAKI-1, in the experiment with SK-OV-3, in the experiment with RPMI-8226, in the experiment with NCI-H460, in the experiment on SNB-75 and with SN12C was > 100 µM (inactive) each time. The GI50 is > 100 µM (inactive) with SK-MEL-5; > 100 µM (inactive) with OVCAR-3; over 100 µM in the experiment on HCT-15; > 100 µM (inactive) with SW-620; > 100 µM (inactive) in the experiment with SF-268; > 100 µM (inactive) in the experiment with KM12. The GI50 in the experiment on M14, in the experiment with HOP-92, in the experiment with K562 and with IGROV-1 was > 100 µM (inactive) in each case.

Regarding `Cc1ccc(S(=O)(=O)N/N=C(/c2nc3ccc([N+](=O)[O-])cc3nc2O)C(O)c2ccc(C(O)/C(=N\NS(=O)(=O)c3ccc(C)cc3)c3nc4ccc([N+](=O)[O-])cc4nc3O)cc2)cc1` (centres undefined), the GI50 is > 100 µM (inactive) in the experiment with SK-OV-3; 26.1 µM (inactive) in the experiment on RPMI-8226; 35.6 µM (inactive) with NCI-H460; > 100 µM (inactive) in the experiment with SNB-75; 28.1 µM (inactive) with SK-MEL-5; 61.2 µM (inactive) in the experiment on OVCAR-3. In addition, the GI50 is 42.8 µM (inactive) in the experiment with SW-620; 67.6 µM (inactive) with U-251; 19.3 µM (inactive) in the experiment with KM12; 20.8 µM (inactive) with M14; 54.2 µM (inactive) in the experiment on HCT-116; 2.55 µM (inactive) with HOP-92. Moreover, the GI50 with K562 was 13 µM (inactive); in the experiment with IGROV-1, > 100 µM (inactive).

As to `COc1ccc(/C(Cl)=C(\C=O)c2ccc(OC)c(OC)c2)cc1`, the GI50 is 74.5 µM (inactive) in the experiment on CAKI-1; 62.4 µM (inactive) with SK-OV-3; 16.5 µM (inactive) in the experiment with RPMI-8226; 35.2 µM (inactive) in the experiment on NCI-H460; 21.7 µM (inactive) in the experiment on SNB-75; 81.8 µM (inactive) in the experiment on SN12C. The GI50 was 39.2 µM (inactive) in the experiment on SK-MEL-5; > 100 µM (inactive) with OVCAR-3; 52.1 µM in the experiment on HCT-15; > 100 µM (inactive) in the experiment with SW-620; 30.1 µM (inactive) in the experiment with SF-268; 29.8 µM (inactive) with U-251. Moreover, the GI50 was > 100 µM (inactive) with M14, 20.8 µM (inactive) with HOP-92, 21 µM (inactive) with K562 and 46.1 µM (inactive) with IGROV-1.

As to `CN(C)CCNC(=O)c1cccc2cc3cc(O)ccc3nc12`, the GI50 in the experiment on CAKI-1 was < 0.0499 µM (active); in the experiment with SK-OV-3, 1.46 µM (inactive); with RPMI-8226 it was 1.36 µM (inactive); in the experiment with NCI-H460 it was 0.361 µM (active); in the experiment on SNB-75, 1.93 µM (inactive); with SN12C, 1.1 µM (active). Also, the GI50 in the experiment on SK-MEL-5 is 1.23 µM (inactive); in the experiment on OVCAR-3, 1.13 µM (inactive); in the experiment with HCT-15 it was 1.23 µM; in the experiment with SW-620 it was 0.611 µM (active); with SF-268, 1.48 µM (inactive); in the experiment with U-251, 1.36 µM (inactive). The GI50 with KM12 is 2.12 µM (inactive); in the experiment on HCT-116, 0.558 µM (active); in the experiment on HOP-92 it was 0.792 µM (active); with K562 it was 1.43 µM (inactive); in the experiment with IGROV-1, 1.37 µM (inactive).

As to `N#C/C(=C/c1ccco1)C(=O)c1ccccc1`, the GI50 in the experiment with CAKI-1, in the experiment on SK-OV-3, in the experiment on RPMI-8226, in the experiment with NCI-H460, in the experiment with SNB-75 and with SN12C was > 100 µM (inactive) each time. Besides, the GI50 is > 100 µM (inactive) with SK-MEL-5; over 100 µM in the experiment with HCT-15; > 100 µM (inactive) in the experiment with SW-620; > 100 µM (inactive) with SF-268; > 100 µM (inactive) in the experiment on U-251; > 100 µM (inactive) with KM12. Moreover, the GI50 with M14, with HCT-116, in the experiment with HOP-92, in the experiment on K562 and with IGROV-1 was > 100 µM (inactive) each time.

Regarding `CN(C)CCNC(=O)c1cccc2c1nc(-c1cccnc1)c1ccccc12`, the GI50 with CAKI-1 was 2.45 µM (inactive); in the experiment with SK-OV-3, 10 µM (inactive); with NCI-H460 it was 0.303 µM (active); in the experiment with SNB-75, 9.35 µM (inactive); in the experiment on SN12C it was 3.3 µM (inactive); in the experiment with SK-MEL-5, 3.37 µM (inactive). Besides, the GI50 in the experiment on OVCAR-3 is 10.1 µM (inactive); in the experiment on HCT-15, 3.74 µM; in the experiment on SW-620, 2.17 µM (inactive); in the experiment with SF-268, 6.05 µM (inactive); in the experiment on U-251, 3.75 µM (inactive); in the experiment on KM12, 6.78 µM (inactive). Also, the GI50 in the experiment with M14 is 6.67 µM (inactive); with HCT-116, 2.95 µM (inactive); with HOP-92 it was 5.31 µM (inactive); in the experiment on K562, 5.98 µM (inactive); in the experiment on IGROV-1, 1.73 µM (inactive).
